According to patent US6872805B2 (Bristol-Myers Squibb Company, priority 2000, dated 2005):
pIC50: −log10 of the molar value.

Legend:
human leukocyte elastase = biological target: T1, human leukocyte elastase (Homo sapiens, UniProt P08246); assay: Specificity assay, human leukocyte elastase; format: biochemical; details: read-out: HLE
T1 sequence (P08246 30-267): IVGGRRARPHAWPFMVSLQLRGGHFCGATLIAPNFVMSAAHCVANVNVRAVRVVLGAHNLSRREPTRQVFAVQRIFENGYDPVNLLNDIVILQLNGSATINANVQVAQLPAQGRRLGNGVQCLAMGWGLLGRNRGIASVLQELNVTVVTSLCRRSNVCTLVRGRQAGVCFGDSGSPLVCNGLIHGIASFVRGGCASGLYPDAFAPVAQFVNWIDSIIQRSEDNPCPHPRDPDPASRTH
Protocol: The specificities of compounds of the present invention were determined against a variety of serine proteases: human leukocyte elastase, porcine pancreatic elastase and bovine pancreatic α-chymotrypsin and one cysteine protease: human liver cathepsin B. In all cases a 96-well plate format protocol using calorimetric […] (pNA) substrate specific for each enzyme was used as described previously (Patent WO 00/09543) with some modifications.
Each assay included a 1 h enzyme-inhibitor pre-incubation at RT followed by addition of substrate and hydrolysis to ˜30% conversion as measured on a Spectramax Pro microplate reader. Compound concentrations varied from 100 to 0.4 μM depending on their potency.
The final conditions and protocol for each assay was as reported previously (Patent WO 00/09543) with the inclusion of an additional assay: • 50 mM Tris-HCl pH 8, 0.5M Na2SO4, 50 mM NaCl, 0.1 mM EDTA, 3% DMSO, 0.01% Tween-20 with 133 μM succ-AAA-PNA and 20 nM Elastase
The percentage of inhibition was calculated using the formula: [1−((UVinh−UVblank)/(UVctl−UVblank))]×100

NS3/4A BMS strain = NS3/4A BMS strain (Hepatitis C virus genotype 1a, UniProt P27958, C1454S/C1711G); assay: Recombinant HCV NS3/4A protease complex FRET peptide assay, BMS strain; format: biochemical, HCV genotype 1a; details: enzyme assay
Description: The purpose of this in vitro assay was to measure the inhibition of HCV NS3 protease complexes, derived from the BMS, H77C or J416S strains, as described below, by compounds of the present invention. This assay provides an indication of how effective compounds of the present invention would be in inhibiting HCV […] proteolytic activity.
Serum from an HCV-infected patient was obtained from Dr. T. Wright, San Francisco Hospital. An engineered full-length cDNA template of the HCV genome (BMS strain) was constructed from DNA fragments obtained by reverse transcription-PCR (RT-PCR) of serum RNA and using primers selected on the basis of homology between other genotype 1a strains. From the determination of the entire genome sequence, a genotype 1a was assigned to the HCV isolate according to the classification of Simmonds et al. (See P Simmonds, K A Rose, S Graham, S W Chan, F McOmish, B C Dow, E A Follett, P L Yap and H Marsden, J. Clin. Microbiol., 31(6), 1493-1503 (1993)). […] The infectious clones, H77C (1a genotype) and J4L6S (1b genotype) were obtained from R. Purcell (NIH) and the sequences are published in genebank (AAB67036, see Yanagi, M., Purcell, R. H., Emerson, S. U. and Bukh, J. Proc. Natl. Acad. Sci. U.S.A. 94(16),8738-8743 (1997); AF054247, see Yanagi, M., St Claire, M., Shapiro, M., Emerson, S. U., Purcell, R. H. and Bukh, J, Virology 244 (1), 161-172. (1998)). […]

NS3/4A BMS strain, sequence (P27958 1027-1711, stated change not applied): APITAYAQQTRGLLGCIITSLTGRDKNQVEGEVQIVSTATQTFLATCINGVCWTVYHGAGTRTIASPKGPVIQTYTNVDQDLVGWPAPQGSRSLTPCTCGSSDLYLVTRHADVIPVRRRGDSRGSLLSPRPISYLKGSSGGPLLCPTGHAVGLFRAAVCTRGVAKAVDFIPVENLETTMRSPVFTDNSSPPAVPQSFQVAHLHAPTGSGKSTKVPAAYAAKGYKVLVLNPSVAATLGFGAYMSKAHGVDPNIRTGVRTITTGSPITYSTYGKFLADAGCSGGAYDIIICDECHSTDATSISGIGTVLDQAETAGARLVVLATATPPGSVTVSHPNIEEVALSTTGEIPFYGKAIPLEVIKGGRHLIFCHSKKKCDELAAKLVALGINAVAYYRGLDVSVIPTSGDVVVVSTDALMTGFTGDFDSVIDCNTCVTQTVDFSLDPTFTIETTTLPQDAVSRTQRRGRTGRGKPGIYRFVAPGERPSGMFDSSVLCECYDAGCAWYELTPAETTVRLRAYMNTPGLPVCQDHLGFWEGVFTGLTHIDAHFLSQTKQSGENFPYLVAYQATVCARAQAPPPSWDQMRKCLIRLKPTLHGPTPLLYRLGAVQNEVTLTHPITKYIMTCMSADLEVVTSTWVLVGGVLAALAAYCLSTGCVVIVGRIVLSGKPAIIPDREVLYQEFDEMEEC
NS3/4A BMS strain, sequence (P27958 1027-1711, stated change not applied): as above

C=CC1C[C@]1(NC(=O)[C@@H]1C[C@@H](Oc2cc(-c3ccccc3)nc3cc(OC)ccc23)CN1C(=O)C(NC(=O)OC(C)(C)C)C(C)(C)C)C(=O)NS(=O)(=O)c1ccc(NC(C)=O)cc1 (some centres unmarked) [Compound 58]
pIC50 (human leukocyte elastase): 4.46
pIC50 (NS3/4A BMS strain): 7.77
